Data from ChEMBL document CHEMBL1126509, “Trisnorsqualene methyl hydroxylamine: a potent dual inhibitor of mammalian squalene epoxidase and oxidosqualene cyclase” (Bioorg Med Chem Lett, 1993).

Key:
[1] = Inhibitory concentration at which 50% decrease in the activity of Squalene epoxidase and Oxidosqualene cyclase in pig liver microsomes; set-up: species or system Sus scrofa, Microsome
[2] = Inhibitory concentration at which 50% decrease in the activity of Squalene epoxidase in pig liver microsomes; NI means no inhibition
[3] = Inhibitory concentration at which 50% decrease in the activity of Squalene epoxidase and Oxidosqualene cyclase in pig liver microsomes; NI means no inhibition; set-up: species or system Sus scrofa, Microsome

Row | IC50 [1] [µM] | IC50 [2] | IC50 [3] | Compound
1 | 5 | – | – | CC(C)=CCC/C(C)=C/CC/C(C)=C/CC/C=C(\C)CC/C=C(\C)CCCN(C)O
2 | 200 | – | – | CC(C)=CCC/C(C)=C/CC/C(C)=C/CC/C=C(\C)CC/C=C(\C)CCC(O)C[N+](=O)[O-] (stereo not given)
3 | – | Not Active | Not Active | CC(C)=CCC/C(C)=C/CC/C(C)=C/CC/C=C(\C)CC/C=C(\C)CC/C=N/O
4 | > 400 | – | – | CC(C)=CCC/C(C)=C/CC/C(C)=C/CC/C=C(\C)CC/C=C(\C)CC/C=C/[N+](=O)[O-]
